Data from publication PMC11120720, “Linking Variability in Phytochemical Composition with Safety Profile of Thymus carnosus Boiss. Extracts: Effect of Major Compounds and Evaluation of Markers of Oxidative Stress and Cell Death” (International Journal of Molecular Sciences, 2024).
Read-outs that look alike come from different tables or passages of the source.

Assays:
Caco-2 cells [1] = conditions: positive control, 5 µM
Protocol: (§1) Flow cytometry was used to analyze the effect of T. carnosus extracts on intracellular ROS, modulation of mitochondrial membrane potential (MMP), cell cycle arrest, and apoptotic/necrotic cell death induction.
(§2) Both one- and two-color assays were performed using a BD Accuri™ C6 cytometer (Becton Dickinson, Franklin Lakes, NJ, USA), and 10,000 gated events were collected from each sample [1]. For flow cytometry assays, cells were handled as described previously but seeded at a density 5 × 10^4 cells/mL (750 μL/well) in 12-well plates. Caco-2 and HepG2 cells were incubated for 24 h with the extracts (100 µg/mL) or individual phytochemicals (50 µM) diluted in FBS-free culture media h. After incubation, test solutions were removed; the cells were washed with PBS and detached from the plates using trypsin-EDTA. Once transferred to centrifuge tubes, the cells were centrifuged (bench micro-centrifuge; 3000 rpm; 3 min), the supernatant was discarded, and a new wash cycle was performed. The cells were then equally divided for each assay. A negative control was used in all assays consisting of nonexposed cells incubated only with culture media.
(§3) Mitochondrial membrane potential (MMP) was evaluated using 5,5″,6,6″-tetrachloro-1,1″,3,3″-tetraethylbenzimidazolylcarbocyanineiodide (JC-1). Cells were processed as described for DCFDA but incubated with 200 µL of JC-1 (2 µM, in FBS-free DMEM) for 20 min (37 °C, in the dark).

HepG2 cells [2] = assay: Mitochondrial membrane potential (JC-1, flow cytometry), HepG2; assay type: cell-based, human
Protocol: as §1, §2, §3

Caco-2 cells [3] = conditions: cited from earlier work
HepG2 cells [4] = conditions: cited from earlier work
[5] = test system: nasopharyngeal carcinoma cells NPC-BM; parameters: method as in PMID 34165247; conditions: cited from earlier work
HepG2 cells [6] = assay: Alamar Blue cell viability assay, HepG2; assay type: cell-based, human; conditions: for IC50: Homo sapiens
Protocol: (§4) The safety profile of T. carnosus AD and HE extracts was evaluated in Caco-2 and HepG2 cells using an Alamar Blue® (Invitrogen; Alfagene, Lisboa, Portugal) assay. An initial screening was performed for all extracts at concentrations ranging between 100 and 1000 µg/mL. Due to the higher toxicity of the HE extracts, which was previously described for various extracts of Thymus species using the same extraction methods (e.g., T. mastichina and Thymus zygis), a different set of concentrations was used for the HE extracts (between 100 and 300 µg/mL for Caco-2 cells and 50 and 150 µg/mL for HepG2 cells). Figure 1 presents the data related to the cell viability assays in Caco-2 (panels A–E) and HepG2 cells (panels F–J) exposed to T. carnosus extracts, as indicated.
(§5) The safety profile of T. carnosus extracts was assessed in Caco-2 and HepG2 cells. Caco-2 (human colon adenocarcinoma cell line) were obtained from CLS (Cell Lines Service, Eppelheim, Germany), and HepG2 (human hepatocellular carcinoma cell line) were obtained from ATCC (American Type Culture Collection, Manassas, VA, USA).
(§6) Cell culture maintenance, handling, subculturing, and seeding were performed as described by Silva et al., 2020 [5], and cell viability was assessed using an Alamar Blue® assay, as described by Andreani et al., 2014 [64]. Concentrations ranged between 100 and 1000 µg/mL for AD extracts in both cell lines and 100 to 300 µg/mL or 50 to 150 µg/mL for HE extracts in Caco-2 and HepG2 cells, respectively. The effect of individual compounds on cell viability was assessed for concentrations ranging from 50 to 300 µM. All test solutions were prepared by diluting the samples in FBS-free culture media from the stock solutions described in Section 3.2, just prior to being used.
(§7) The results are presented as mean ± SD of at least three independent assays. The calculation of IC50 values was performed as described by Silva et al., 2020 [5]. Data analysis, graphical design, and statistical analysis were performed using Microsoft Office Excel (Professional Plus 2019; Microsoft Corporation, Washington, DC, USA) and GraphPad Prism (Version 8; GraphPad Software Inc., San Diego, CA, USA). Flow cytometry data analysis was performed using BD Accuri™ C6 Software, version 1.0.264.21 (Becton Dickinson, San Diego, CA, USA).

[7] = test system: nasopharyngeal carcinoma cells NPC-039; parameters: method as in PMID 34165247; conditions: cited from earlier work
Caco-2 cells [8] = assay: Alamar Blue cell viability assay, Caco-2; assay type: cell-based, human; conditions: for IC50: Homo sapiens
Protocol: as §4, §5, §6, §7

Caco-2 cells [9] = assay: Annexin V-FITC/PI apoptosis/necrosis, Caco-2; assay type: cell-based; conditions: compound 50 µM, 24 h
Protocol: (§8) The cells were then equally divided for each assay.
(§9) For the assessment of apoptotic/necrotic cell death, an Annexin V-FITC (Thermo Fisher Scientific, Waltham, MA, USA) and propidium iodide (PI; Merck, Darmstadt, Germany) double-staining assay was used to evaluate the apoptotic/necrotic cell death induced by T. carnosus extracts and by individual phytochemicals, as described previously. Briefly, after detachment and washing, the supernatant was discarded, and 200 µL of Annexin V-FITC (1:200 dilution in Annexin-binding buffer [10 mM HEPES sodium salt, 150 mM NaCl, 5 mM KCl, 5 mM MgCl2, and 1.8 mM CaCl2; pH = 7.4]) was added. Cells were incubated for 20 min (room temperature, in the dark). After incubation, 5 µL of propidium iodide (PI; 50 µg/mL) was added, the cells were incubated for 5 min on ice (in the dark), and the data were acquired.

HepG2 cells [10] = assay: Cell cycle arrest (PI, flow cytometry), HepG2; assay type: cell-based, human; conditions: compound 50 µM, 24 h
Protocol: as §8
(§10) Cell cycle arrest assessment was performed as described in [1]. Cells were processed as described above until cell detachment and centrifuged, after which the second washing step was performed with ice-cold PBS (0 °C). After centrifugation, the supernatant was discarded, and cells were fixed with 500 µL of ethanol:PBS solution (70:30, % v/v, previously cooled at −20 °C) for at least 4 h at −20 °C. After fixation, two washing cycles were performed: the first with ice-cold PBS (0 °C) and the second with room-temperature PBS, followed by the addition of 200 µL of a PBS solution containing PI (50 µg/mL), RNAse A (50 µg/mL), and Triton X-100 (0.1%). Cells were incubated for 30 min at 37 °C, and then cells were washed once with PBS to remove the staining solution. After resuspension in PBS, the data were acquired.

HepG2 cells [11] = assay: Annexin V-FITC/PI apoptosis/necrosis, HepG2; assay type: cell-based, human; conditions: compound 50 µM, 24 h
Protocol: as §8, §9

Caco-2 cells [12] = assay: Cell cycle arrest (PI, flow cytometry), Caco-2; assay type: cell-based; conditions: compound 50 µM, 24 h
Protocol: as §8, §10

HepG2 cells [13] = assay: Intracellular ROS (DCFDA, flow cytometry), HepG2; assay type: cell-based, human; conditions: compound 50 µM, 24 h
Protocol: as §8
(§11) Intracellular ROS level assessment was performed as described by Silva et al., 2022 [65], using dichlorodihydrofluorescein diacetate (DCFDA). Cells obtained in the previous step were centrifuged, the supernatant discarded, and 200 µL of DCFDA (10 µM in FBS-free DMEM) was added. Cells were incubated for 45 min (37 °C, in the dark), washed to remove excess probe, and resuspended in PBS for data acquisition.

[14] = test system: hepatocarcinoma cells (HuH7); parameters: method as in PMID 20415421; conditions: 20-80 µM; cited from earlier work
Caco-2 cells [15] = assay: Intracellular ROS (DCFDA, flow cytometry), Caco-2; assay type: cell-based; conditions: compound 50 µM, 24 h
Protocol: as §8, §11

[16] = parameters: method as in PMID 31344882, PMID 26042707; conditions: cited from earlier work
[17] = Alamar Blue cell viability assay, HepG2; assay type: cell-based, human; conditions: human, HepG2 cells, concentration not given
Protocol: as §4, §5, §6, §7

[18] = Alamar Blue cell viability assay, Caco-2; assay type: cell-based, human; conditions: human, Caco-2; 48 h; concentration not given; read-out: cell viability, Caco-2 (% of control)
Protocol: as §4, §5, §6, §7

[19] = test system: normal and tumoral human nasopharyngeal cells; parameters: method as in PMID 33277860; conditions: 24 h; cited from earlier work
[20] = test system: human lung cancer (A549) cells; conditions: cited from earlier work

N#CC(C#N)=NNc1ccc(OC(F)(F)F)cc1 [FCCP, carbonyl cyanide p-trifluoromethoxyphenylhydrazone]
JC-1 FL2/FL1 ratio normalized by negative control, Caco-2 (Caco-2 cells [1]): 0.06 ± 0.01
reduction in MMP, Caco-2 (Caco-2 cells [1]): ~ 94%
JC-1 FL2/FL1 ratio normalized by negative control, HepG2 (HepG2 cells [2]; positive control, 5 µM): 0.10 ± 0.01
reduction in MMP, HepG2 (HepG2 cells [2]; positive control, 5 µM): ~ 90%

O=C(O)[C@H]1O[C@@H](Oc2c(-c3ccc(O)c(O)c3)oc3cc(O)cc(O)c3c2=O)[C@H](O)[C@@H](O)[C@@H]1O [quercetin-3-O-glucuronide]
cytotoxicity in Caco-2 cells relative to quercetin aglycone (Caco-2 cells [3]): lower cytotoxicity in Caco-2 cells than aglycone

O=c1c(O[C@@H]2O[C@H](CO)[C@@H](O)[C@H](O)[C@H]2O)c(-c2ccc(O)c(O)c2)oc2cc(O)cc(O)c12 [quercetin-3-O-glucoside]
cytotoxicity in Caco-2 cells relative to quercetin aglycone (Caco-2 cells [3]): lower cytotoxicity in Caco-2 cells than aglycone

COc1cc(/C=C/C(=O)CC(=O)/C=C/c2ccc(O)c(OC)c2)ccc1O [curcumin]
MMP modulation, HepG2 (HepG2 cells [4]; 27-108 µM): mitochondrial membrane hyperpolarization in HepG2 cells, followed by depolarization

O=c1cc(-c2ccc(O)c(O)c2)oc2cc(O[C@@H]3O[C@H](CO)[C@@H](O)[C@H](O)[C@H]3O)cc(O)c12 [Luteolin-7-O-glucoside, luteolin-7-O-glucoside]
MMP modulation, NPC-BM ([5]; 20, 40 and 80 µM): MMP depolarization
cell cycle effect, NPC-BM [5]: cell cycle arrest in the S and G2/M phases
reduction in HepG2 cell viability (HepG2 cells [6]; 300 µM, 48 h): ~ 30%
concentrations giving significant effect on HepG2 cell viability (HepG2 cells [6]; 48 h exposure): ≥ 100 µM
MMP modulation, NPC-039 ([7]; 20, 40 and 80 µM): MMP depolarization
cell cycle effect, NPC-039 [7]: cell cycle arrest in the S and G2/M phases
concentrations reducing Caco-2 cell viability (p < 0.05) (Caco-2 cells [8]; Caco-2): ≥ 75 µM
IC50 (HepG2 cells [4]; read-out: concentration reducing HepG2 cells' viability to ~50%): 44.6 µM
cell death induction, Caco-2 (Caco-2 cells [9]): did not induce cell death
cell cycle effect, HepG2 (HepG2 cells [10]): induced cell cycle arrest in both cell lines but in different phases
cell death induction, HepG2 (HepG2 cells [11]): did not induce cell death
IC50 (Caco-2 cells [3]; read-out: concentration reducing Caco-2 cell viability to 50% of control, 48 h): ~55 µM
cell cycle effect, Caco-2 (Caco-2 cells [12]): cell cycle arrest in G0/G1
change in intracellular ROS, HepG2 (HepG2 cells [13]): significant (p < 0.05) increase in intracellular HepG2 ROS levels

CC1(C)CC[C@]2(C(=O)O)CC[C@]3(C)C(=CC[C@@H]4[C@@]5(C)CC[C@H](O)C(C)(C)[C@@H]5CC[C@]43C)[C@@H]2C1 [Oleanolic acid, oleanolic acid]
IC50 (HepG2 cells [6]; HepG2, 24 h exposure, read-out: IC50 (µM) - HepG2 cells: 24 h): 150 ± 7.66 µM
MMP modulation, HuH7 [14]: reduce MMP
IC50 (Caco-2 cells [8]; Caco-2, 24 h exposure, read-out: IC50 (µM) - Caco-2 cells: 24 h): 78.5 ± 3.57 µM
IC50 (Caco-2 cells [8]; Caco-2, 48 h exposure, read-out: IC50 (µM) - Caco-2 cells: 48 h): 45.9 ± 2.47 µM
concentrations reducing HepG2 cell viability (HepG2 cells [4]; 48 h): ≥ 2 µM
IC50 (HepG2 cells [4]; read-out: IC50, HepG2 cells, 72 h): > 100 µM
change in intracellular ROS, Caco-2 (Caco-2 cells [15]): increase in ROS
percentage of cells in late apoptosis, Caco-2 (Caco-2 cells [9]): ~ 29%
percentage of cells in necrosis, Caco-2 (Caco-2 cells [9]): ~ 50%
lipophilicity [16]: high lipophilicity
water solubility [16]: poor water solubility
cell death induction, HepG2 (HepG2 cells [11]): slight reduction in the percentage of healthy cells
concentrations reducing Caco-2 cell viability (Caco-2 cells [3]; 24 h): ≥ 5 µM
cell cycle effect, Caco-2 (Caco-2 cells [12]): cell cycle arrest in G0/G1
change in intracellular ROS, HepG2 (HepG2 cells [13]): significant (p < 0.05) increase in intracellular HepG2 ROS levels

O=C1C[C@@H](c2ccc(O)c(O)c2)Oc2cc(O)cc(O)c21 [Eriodictyol, eriodictyol]
viability at 24 h ([17]; 24 h): 56.9%
viability at 48 h ([17]; 48 h): 43.2%
IC50 (HepG2 cells [6]; HepG2, 24 h, read-out: IC50 (µM) - HepG2 cells: 24 h): > 300 µM
IC50 (HepG2 cells [6]; HepG2, 48 h, read-out: IC50 (µM) - HepG2 cells: 48 h): 231 ± 23.2 µM
MMP modulation, HepG2 (HepG2 cells [2]; compound 50 µM, 24 h): hyperpolarization of the mitochondrial membrane
reduction of Caco-2 cell viability (Caco-2 cells [8]; 48 h, concentration not given): ~ 81%
IC50 (Caco-2 cells [8]; Caco-2, 24 h, read-out: IC50 (µM) - Caco-2 cells: 24 h): 245 ± 13.7 µM
IC50 (Caco-2 cells [8]; Caco-2, 48 h, read-out: IC50 (µM) - Caco-2 cells: 48 h): 82.5 µM
viability at 48 h [18]: ~19%
change in intracellular ROS, Caco-2 (Caco-2 cells [15]): neither RA nor eriodictyol induced ROS increases
concentrations inducing cytotoxicity, nasopharyngeal cells [19]: ≥ 5 µM
cell death induction, Caco-2 (Caco-2 cells [9]): induced apoptosis and necrosis
cell cycle effect, A549 [20]: cell cycle arrest in the G2/M phase
concentrations reducing the MMP in A549 cells [20]: ≥ 25 µM
cell death induction, HepG2 (HepG2 cells [11]): induced apoptosis and necrosis
change in intracellular ROS, HepG2 (HepG2 cells [13]): significant (p < 0.05) increase in intracellular HepG2 ROS levels
